According to patent US20110256291A1, “CYCLIC LIPOPEPTIDES FOR USE AS TASTE MODULATORS” (NUTRINOVA NUTRITION SPECIAL TIES & FOOD INGREDIENT GMBH, priority 2008, published 2011):

Target: T1, human T1R2/T1R3 taste receptor (Homo sapiens, UniProt Q7RTX0+Q8TE23)
T1 construct: the cDNA for the receptors ht1R2 and ht1R3 and the cDNA for the blasticidin S deaminase gene have been cloned; expressed in transfected cells; host or cells: HEK293 cell line stably expressing mouse G-alpha-15, stably transfected with the tricistronic vector pTrix-Eb-R2R3 and selected with blasticidin
T1 sequence (Q8TE23 20-839): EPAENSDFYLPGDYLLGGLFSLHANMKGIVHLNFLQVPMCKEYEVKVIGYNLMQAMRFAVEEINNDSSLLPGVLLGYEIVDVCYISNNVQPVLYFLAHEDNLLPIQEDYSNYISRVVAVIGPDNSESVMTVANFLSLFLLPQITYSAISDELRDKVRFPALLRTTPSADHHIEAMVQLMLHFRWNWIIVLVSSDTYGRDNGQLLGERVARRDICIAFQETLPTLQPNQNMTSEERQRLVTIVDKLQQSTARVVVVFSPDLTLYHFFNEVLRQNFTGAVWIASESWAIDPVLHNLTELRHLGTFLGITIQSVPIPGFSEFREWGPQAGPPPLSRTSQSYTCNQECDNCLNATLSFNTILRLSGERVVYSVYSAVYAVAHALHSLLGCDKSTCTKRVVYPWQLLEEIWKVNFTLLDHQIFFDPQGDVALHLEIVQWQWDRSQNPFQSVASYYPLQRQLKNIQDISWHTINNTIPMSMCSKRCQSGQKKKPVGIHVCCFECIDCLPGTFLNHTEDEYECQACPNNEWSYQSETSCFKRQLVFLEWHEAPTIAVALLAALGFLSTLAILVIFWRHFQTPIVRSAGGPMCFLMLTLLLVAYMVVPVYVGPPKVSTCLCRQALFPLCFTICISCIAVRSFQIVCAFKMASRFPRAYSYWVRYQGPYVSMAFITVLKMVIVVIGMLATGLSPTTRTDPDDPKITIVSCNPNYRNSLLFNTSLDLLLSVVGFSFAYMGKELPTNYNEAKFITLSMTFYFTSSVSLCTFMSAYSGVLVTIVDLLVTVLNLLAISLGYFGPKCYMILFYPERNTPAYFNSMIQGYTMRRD
T1 sequence (Q7RTX0 21-852): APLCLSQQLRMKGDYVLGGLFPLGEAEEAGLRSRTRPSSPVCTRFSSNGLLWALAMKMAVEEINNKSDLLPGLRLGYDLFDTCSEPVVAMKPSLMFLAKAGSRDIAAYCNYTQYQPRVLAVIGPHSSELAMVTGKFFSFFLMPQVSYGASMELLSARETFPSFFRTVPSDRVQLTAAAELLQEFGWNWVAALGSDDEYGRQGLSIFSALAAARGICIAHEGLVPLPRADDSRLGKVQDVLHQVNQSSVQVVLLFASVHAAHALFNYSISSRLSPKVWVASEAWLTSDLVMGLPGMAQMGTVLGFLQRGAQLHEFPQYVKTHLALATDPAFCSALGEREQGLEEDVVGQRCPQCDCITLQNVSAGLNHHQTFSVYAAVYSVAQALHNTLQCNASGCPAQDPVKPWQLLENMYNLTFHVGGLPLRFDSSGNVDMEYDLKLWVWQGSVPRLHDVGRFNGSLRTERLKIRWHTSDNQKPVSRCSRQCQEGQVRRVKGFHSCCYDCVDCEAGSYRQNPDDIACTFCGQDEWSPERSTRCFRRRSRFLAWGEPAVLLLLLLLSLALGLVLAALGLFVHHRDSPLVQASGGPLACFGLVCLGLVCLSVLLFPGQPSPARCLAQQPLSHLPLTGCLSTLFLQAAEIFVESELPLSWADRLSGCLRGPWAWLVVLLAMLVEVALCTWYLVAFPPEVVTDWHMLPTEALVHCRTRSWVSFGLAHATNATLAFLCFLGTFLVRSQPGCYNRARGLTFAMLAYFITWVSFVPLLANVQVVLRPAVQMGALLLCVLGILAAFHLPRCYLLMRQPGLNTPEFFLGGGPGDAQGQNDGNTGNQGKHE
Test: calcium dependent cell based assay (Fluo-4 AM) in HEK293 cells stably expressing G-alpha-15, human T1R2 and human T1R3
Conditions: 30 mM fructose (5.4 g/l), pre-examinations
Description: Fluo-4 AM assay with stable HEK293 cells—Stable cells are maintained in DMEM high-glucose medium (Invitrogen) supplemented with 10% fetal bovine serum (Biochrom) and 4 mM L-glutamine (Invitrogen). Cells for calcium imaging are maintained in DMEM low-glucose medium supplemented with 10% FBS and 1× Glutamax-1 (Invitrogen) for 48 hours before seeding. These stable cells are trypsinised after 48 hours (either with Trypsin-EDTA, Accutase or TrypLE) and seeded onto poly-D-lysine coated 96-well assay plates (Corning) at a density of 45,000 cells/well in DMEM low-glucose medium supplemented with 10% FBS and 1× Glutamax-1.
After 24 hours, the cells were loaded in 100 μl medium with additional 100 μl of 4 μM Fluo-4 (calcium sensing dye, 2 μM end concentration; Molecular Probes) in Krebs-HEPES (KH)-buffer for 1 hour. The loading reagent is then replaced by 200 μl KH-buffer per well. […]
The dye-loaded stable cells in plates were placed into a fluorescence microtiter plate reader to monitor fluorescence (excitation 488 nm, emission 520 nm) change after the addition of 50 μl KH-buffer supplemented with 5× tastants. […]
Calcium mobilization was quantified as the change of peak fluorescence (ΔF) over the baseline level (F0). Data were expressed as the mean S.E. of the (ΔF/F0) value of replicated independent samples. The analysis was done with the software of the microtiter plate reader. […]

activation of the sweet taste receptors: barely activating
SMILES: O=C(CO)[C@@H](O)[C@H](O)[C@H](O)CO [fructose]
